The values below come from patent US20260315434A1, “USE OF GUAIACOL SESQUITERPENE LACTONE DERIVATIVES” (NANJING UNIVERSITY OF CHINESE MEDICINE, priority 2023, published 2026).

Values after ≈ are worked out from the molar mass of the structure shown.

In one data set the test system is T cells / MDSCs. As to the kind of experiment: Promotion of T cell proliferation in a co-culture model of MDSCs and T cells. It counts as cell-based, mouse. The conditions noted are these: for T-cell proliferation rate (%) / T cell proliferation in MDSC-T cell co-culture: 1 μM; for T-cell proliferation rate (%): MDSCs treated 12 hours, co-culture of MDSCs and T cells, compared to the control group; for T cell proliferation in MDSC-T cell co-culture: result in words; for activation at 1 µM: Mus musculus, T-cell, 12 h, read-out: T-cell proliferation rate (%), 1 μM, MDSCs treated 12 hours, co-culture of MDSCs and T cells, compared to the control group. In outline: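 Bone-marrow MDSCs, after compound treatment, were co-cultured 48 h at 1:1 with CFDA-SE-labelled (10 μM solution), activated splenic T cells. Proliferation of CD3+ T cells was read by flow cytometry.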

The subject of another data set is MDSCs. As to the kind of experiment: Inhibition of MDSC chemotaxis (Transwell, tumor-conditioned medium). In kind it is cell-based, mouse. Also noted: inhibition of MDSC chemotaxis compared to Arg: dose or concentration left out as unconfirmed. The conditions noted are these: for inhibition at 1 µM / inhibition at 10 µM: Mus musculus, read-out: Suppression Rate (MDSC chemotaxis); for inhibition of MDSC chemotaxis compared to Arg: result in words. How it is done: Hepa1-6 mouse hepatocellular carcinoma cells were uniformly seeded into 6-well plates. After cells reached confluence, supernatant was aspirated, and 1-1.5 mL fresh medium was added to each well. Following 24 h culture, supernatant was collected, centrifuged at 1600 rpm for 5 min, aspirated, and filtered through a 0.22 μm membrane to obtain tumor-conditioned medium for subsequent use. […] Under sterile conditions, remove the tibia, cut both ends of the bone, and aspirate the bone marrow into a 1 mL syringe. Repeat flushing into a 15 mL centrifuge tube. Centrifuge at 1600 rpm for 5 min to collect bone marrow cells. Wash twice with 1×PBS. […] Count cells, adjust density to 1×10^6 cells/mL, and uniformly seed into 24-well plates at 300 μL per well. […] Centrifuge at 1600 rpm for 5 min, remove supernatant, resuspend cells in 300 μL fresh medium, and place into Transwell chambers. […] Co-culture for 24 h.

For a further data set, the system named is CCR2 mRNA. As to the kind of experiment: Inhibition of CCR2 mRNA level in MDSCs. It counts as cell-based. The conditions noted are these: Mus musculus, 2 h, read-out: Suppression Rate (inhibition of CCR2 mRNA levels). Here is the method: Under sterile conditions, the tibia was removed, both ends of the bone were cut, and bone marrow was repeatedly flushed into a 15 mL centrifuge tube using a 1 mL syringe filled with culture medium. Centrifuge at 1600 rpm for 5 min to collect bone marrow cells. […] Count cells and adjust density to 1×10^6 cells/mL in complete medium. Seed cells uniformly into 6-well plates at 2 mL per well. […] After incubation, collect cells into centrifuge tubes, centrifuge at 1600 rpm for 5 min, wash once with 1×PBS, and add 500 μL RNA extraction reagent to each tube. After centrifugation to obtain the pellet, add 20 μL DEPC-treated water to each tube to dissolve the pellet. Determine RNA concentration and reverse transcribe to cDNA. Add the cDNA, primers, and […] to a 96-well plate. Centrifuge at 4000 rpm for 5 min, then place in a PCR instrument for detection.

The nature of data set [1]: Water solubility testing of compounds (HPLC). Conditions: deionized water, 37 °C; for solubility: water, Water-solubility.
A short description of data set [2]: Conversion (release) of prodrug salts to parent compound in HEPES buffer pH 7.4. It counts as in vitro ADME. The conditions noted are these: for Release rate (conversion to Compound 83): HEPES pH 7.4, 37 °C. A digest of the protocol:
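Salt dissolved in water, mixed 1:1 with HEPES solution pH 7.4 (NaCl, KCl, Na2HPO4, glucose) and held at 37° C. At 1, 2, 4, 8 and 12 h, samples were methanol-quenched, centrifuged and analysed by reversed-phase HPLC at 210 nm, with peak areas recorded for conversion to parent compound.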

A short description of data set [3]: Conversion (release) of prodrug salts to parent compound in mouse plasma. It counts as in vitro ADME. Conditions: 37 °C. A digest of the protocol:
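Salts (0.6 mg in 250 μL water) were mixed 1:1 with heparinized mouse plasma or HEPES pH 7.4 and incubated at 37 °C. Samples were methanol-quenched and taken at 1–12 h. Parent compound was quantified by C18 HPLC-UV at 210 nm using peak areas.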

Another data set deals with serum ALT and AST. The data set is described as follows: CCl4-induced acute liver injury, serum ALT and AST. Conditions: 200 mg/kg. It counts as in vivo, C57BL/6 mice. How it is done:
(§1) They were acclimated for 7 days before use in experiments.
(§2) Mice were randomly assigned to groups. One group was arbitrarily designated as the normal group, while the remaining groups served as model group, Compound 1 group, Hydrochloride 20 group, Fumarate 21 group, and Silibinin group, with 6 mice per group. Except for the normal group receiving 10 mL olive oil/kg via injection, all other mice received 0.5 mL CCl4+9.5 mL olive oil/kg body weight via intraperitoneal injection, maintaining a CCl4 to olive oil ratio of 1:19. Starting from day 1 of modeling, Compound 1, Hydrochloride 20, and Fumarate 21 were administered orally for 3 consecutive days.
(§3) The blood was allowed to stand at room temperature for 2 hours, then centrifuged at 3000 rpm for 20 minutes. Serum was aspirated, aliquoted, and stored at −70° C. for future use. After blood collection, euthanize mice by cervical dislocation. Perform laparotomy to remove the liver. Rinse twice with pre-chilled PBS. Excise the left hepatic lobe tissue. […] Store remaining tissue at −70° C. for future use.
Serum AST and ALT Assay: Use 10 μL of each sample for testing. Determine mouse serum AST and ALT levels according to the operating manual. Measure absorbance at 510 nm using an enzyme-linked immunosorbent assay (ELISA) reader. Calculate sample concentration (U/L) based on the standard curve.
(§4) Data Statistics: All data are expressed as means f standard error of the mean (S.E.M.). Differences were analyzed for significance using analysis of variance (ANOVA). For groups showing significant differences in ANOVA, one-way ANOVA followed by Dunnett's test was performed to compare intergroup differences.

Data set [4] has as its system fibrosis-related factors (Acta2, Col1a1, Tgfb1) in liver tissue. As to the kind of experiment: CCl4-induced acute liver injury, liver fibrosis-related factor mRNA. It counts as in vivo, C57BL/6 mice. Also noted: unit not given here. Conditions: 200 mg/kg. Here is the method:
as §1, §2, §3
Q-PCR Analysis: Tissue total RNA extraction, cDNA synthesis, and PCR amplification methods are identical to Example 4. Additional primer information is as follows:
as §4

For `C=C1C(=O)O[C@H]2[C@H]1CCC(C)=C1CC[C@@](C)(OC(=O)NCCN3CCOCC3)[C@@H]12` [Compound 78], in the data set on T cells / MDSCs, the “T-cell proliferation rate (%)” value is recorded as “+++ (T-cell proliferation rate >40% compared to the control group)” and the “T cell proliferation in MDSC-T cell co-culture” value (shortened to “T cell proliferation”) is “significantly enhanced T-cell proliferation”. In the data set with MDSCs, the inhibition at 1 µM worked out at 29% and the inhibition at 10 µM was found to be 67.1%. Also, in the data set with CCR2 mRNA, the inhibition at 1 µM stood at 23% and the inhibition at 10 µM worked out at 52.7%. The compound also came in with a Water-solubility in data set [1] of 200 µg/mL.
`C=C1C(=O)O[C@H]2[C@H]1CCC(C)=C1CC[C@@](C)(OC(=O)N3CCCC3)[C@@H]12` [Compound 82]: in the data set on T cells / MDSCs, the “T cell proliferation” value was “significantly enhanced T-cell proliferation” and the activation at 1 µM is over 40%. In addition, in the data set with MDSCs, the inhibition at 1 µM came out at 38.5%, the inhibition at 10 µM came to 77.6% and the “inhibition of MDSC chemotaxis compared to Arg” value is “superior inhibition rates”. Also, in the data set on CCR2 mRNA, the inhibition at 1 µM was 28.5% and the inhibition at 10 µM was 74.4%. Besides, the concentration in solution in data set [1] (solubility) was 148 µg/mL (≈ 0.428 mM).
For `C=C1C(=O)O[C@H]2[C@H]1CCC(C)=C1CC[C@@](C)(OC(=O)N3CCCCC3)[C@@H]12` [Compound 83], in the data set on T cells / MDSCs, the “T cell proliferation” value is recorded as “significantly enhanced T-cell proliferation” and the activation at 1 µM is over 40%. Further, in the data set with MDSCs, the inhibition at 1 µM was 29.4%, the inhibition at 10 µM amounted to 75.9% and the “inhibition of MDSC chemotaxis compared to Arg” value was “superior inhibition rates”. In the data set with CCR2 mRNA, the inhibition at 1 µM stood at 17% and the inhibition at 10 µM came out at 70%. This compound also returned a Water-solubility in data set [1] of 152 µg/mL.
Turning to `CC1=C2CC[C@@](C)(OC(=O)N3CCCCC3)[C@@H]2[C@H]2OC(=O)[C@@H](CN3CCCC3)[C@@H]2CC1` [Compound 100], the degraded at 1 h in data set [2] (hepes buffer, pH 7.4, HEPES pH 7.4, 37 °C, 1 h, read-out: Release rate (conversion to Compound 83)) stood at 6.5%. Further, the degraded at 2 h in data set [2] (hepes buffer, pH 7.4, HEPES pH 7.4, 37 °C, 2 h, read-out: Release rate (conversion to Compound 83)) turned out to be 14%. Also, the degraded at 4 h in data set [2] (hepes buffer, pH 7.4, HEPES pH 7.4, 37 °C, 4 h, read-out: Release rate (conversion to Compound 83)) worked out at 26.4%. The degraded at 8 h in data set [2] (hepes buffer, pH 7.4, HEPES pH 7.4, 37 °C, 8 h, read-out: Release rate (conversion to Compound 83)) is 45.2%. In addition, the degraded at 12 h in data set [2] (hepes buffer, pH 7.4, HEPES pH 7.4, 37 °C, 12 h, read-out: Release rate (conversion to Compound 83)) was 51.4%. For the same compound, in data set [3] (mouse, plasma, 1 h, read-out: Release rate (conversion to Compound 83)), the metabolised at 1 h is 6.6%. Moreover, the metabolised at 2 h in data set [3] (mouse, plasma, 2 h, read-out: Release rate (conversion to Compound 83)) was found to be 13.8%. Moreover, the metabolised at 4 h in data set [3] (mouse, plasma, 4 h, read-out: Release rate (conversion to Compound 83)) came out at 25.6%. The metabolised at 8 h in data set [3] (mouse, plasma, 8 h, read-out: Release rate (conversion to Compound 83)) came to 43.2%. In data set [3] (mouse, plasma, 12 h, read-out: Release rate (conversion to Compound 83)), the metabolised at 12 h is 53%. Moreover, the “T-cell proliferation rate (%)” value with T cells / MDSCs was “+ (T-cell proliferation rate within the 0-20% range compared to the control group)”. In addition, the solubility in data set [1] was 145000 µg/mL (≈ 336 mM).
Take `CC1=C2CC[C@@](C)(OC(=O)N3CCCCC3)[C@@H]2[C@H]2OC(=O)[C@@H](CN3CCCC3)[C@@H]2CC1` [Compound 101]: the “Release rate (conversion to Compound 83)” value in data set [2] (1 h, 60 min) is on record as 7.0%; in data set [2] (2 h, 120 min), 16.0%; in data set [2] (4 h, 240 min) it was 28.2%; in data set [2] (8 h, 480 min), 46.4%; in data set [2] (12 h, 720 min) it was 53.6%; in data set [3] (1 h, 60 min) it was 7.6%. For the same compound, the “Release rate (conversion to Compound 83)” value is 16.6% in data set [3] (2 h, 120 min); 27.4% in data set [3] (4 h, 240 min); 46.0% in data set [3] (8 h, 480 min); 54.2% in data set [3] (12 h, 720 min). Besides, the “T-cell proliferation rate (%)” value in the data set on T cells / MDSCs is recorded as “+ (T-cell proliferation rate within the 0-20% range compared to the control group)”. For the same compound, the Water-solubility in data set [1] was found to be 108000 µg/mL.
As to Silybin [reference compound], in the data set on serum ALT and AST, the ALT is 121.58 ± 15.45 U/L and the AST came to 301.45 ± 38.44 U/L. In addition, in data set [4], the “Acta2 mRNA expression, liver” value stood at 2.91 ± 0.48; the “Col1a1 mRNA expression, liver” value was found to be 1.84 ± 0.17; the “Tgfb1 mRNA expression, liver” value stood at 1.11 ± 0.08.

In general, solubility refers to the dissolved amount per volume that the medium holds.
